These results are taken from article PMC5760734, “Development of an oral once-weekly drug delivery system for HIV antiretroviral therapy” (Nature Communications, 2018).

Like-named read-outs stand apart in the source and are kept apart here. Where only a bound is given, the exact number is not on record here.

Data set [1] is described as follows: Plasma pharmacokinetics of immediate release and gastric resident dosage forms in pigs. The format is in vivo, Yorkshire pigs. The settings on record: for Tmax: female, Yorkshire, pig, plasma, oral, post-dose, read-out: time of maximum plasma concentration (converted); for duration of sustained drug concentrations: single dose. The procedure:
All animal experiments were approved by the Committee on Animal Care at the Massachusetts Institute of Technology. In vivo pharmacokinetics were evaluated in an unblinded fashion in female Yorkshire pigs (50–95 kg) that were randomly assigned to the immediate release or sustained release groups. Animals were fed daily in the morning and in the evening with a diet consisting of pellets (Laboratory mini-pig growler diet, 5081), with a midday snack consisting of various fruits and vegetables. Specifically, the pellets were 5/32” x ¼” length, and consisted of ground oats, alfalfa meal, wheat middlings, soybean meal, dried beet pulp, salts and other micronutrients.
To determine the oral pharmacokinetics of immediate release dosage forms of DTG and CAB, 50 mg of DTG and 30 mg of CAB were weighed and filled into gelatine capsules. For RPV pharmacokinetics, RPV base was dissolved in poly(ethylene glycol) (molecular weight—400 Da) containing 10-fold molar excess of citric acid. The concentration of RPV base in this solution was 5 mg/mL and 5 mL of the solution was dosed in a gelatine capsule. […] To determine oral pharmacokinetics from gastric retentive dosage forms, the arms of dosage forms (2–3/pig containing 350 mg DTG, 175 mg RPV or 210 mg CAB) were folded into capsule shells immediately prior to dosing. […]. The capsules containing drug or dosage form were delivered into the intestine or stomach respectively. At various time points, blood samples (0.5 mL) were collected from a central line connected to the external jugular vein or from a mammary vein into […] Vacutainer gold top tubes (Becton, Dickinson and Co. USA). Plasma samples were separated from blood by centrifugation (1800g, 10 min at 4 °C) and were stored at −80 °C. Atropine can reduce gastric acid production and gastric motility which may affect the overall drug pharmacokinetics and the gastric retention of the dosage form. […]. Drug concentrations in the plasma were analysed using UPLC-MS/MS. Plasma samples (100 µL) were spiked with 200 µL acetonitrile solution of 250 µg/mL maraviroc (internal standard) to cause precipitation. Samples were vortexed and sonicated for 10–20 min and then centrifuged (21130g, 10 min). Two hundred microliters of solution were pipetted into a 96-well plate containing 200 µL of nanopure water. Finally, 2.5 μL was injected onto the UPLC–ESI–MS system for analysis.
UPLC separation was carried out on a Waters® UPLC aligned with a Waters® Xevo–TQ-SMS mass spectrometer (Waters Ltd., UK). MassLynx® 4.1 software was used for data acquisition and analysis. Liquid chromatography separation was performed on an Acquity® UPLC CSH C18 (50 × 2.1 mm, 1.7 μm particle size) column at 50 °C. The mobile phase consisted of acetonitrile spiked with 0.1% formic acid and 10 mM ammonium formate solution. The mobile phase was flowed at a rate of 0.6 mL/min using a time and solvent gradient composition. The initial composition (100% aqueous) was held for 1 min, following which the composition was changed linearly to 20% organic phase over the next 0.25 min. The composition was then brought to 100% organic over 1.25 min, held for 0.5 min and finally shifted to the initial composition and held constant until the end of the run for column equilibration. The total run time was 4 min and sample injection volume was 2.5 μL. The mass spectrometer was operated in the multiple reaction monitoring (MRM) mode. Sample introduction and ionization was by electrospray ionization (ESI) in the positive ion mode. DTG, RPV and CAB were analysed at mass-to-charge ratios of […] respectively. Stock solutions of DTG, RPV, CAB, and an internal standard maraviroc were prepared in methanol at a concentration of 500 μg/mL. A ten-point calibration curve was prepared ranging from 2.5–5000 ng/mL. Quality control samples were prepared in a similar procedure using an independent stock solution at three concentrations (5, 50 and 500 ng/mL). […]

The nature of data set [2]: Drug stability in simulated gastric fluid (SGF), HPLC. The settings on record: for stability in SGF: SGF pH ~1.2, 37 °C, 24 h, salt forms. The procedure: To determine drug stability at low pH, the drugs were dissolved in methanol to form a concentrated stock solution. Methanol solutions were then diluted 20-fold in simulated gastric fluid, USP without pepsin (pH ~1.2; henceforth referred to as SGF). Drug solutions were then placed in a shaker incubator (New Brunswick™ Innova® 44, Eppendorf, USA) at 37 °C and 150 r.p.m. At various times, aliquots were withdrawn and stored at −20 °C until analysis. Drug concentrations in the solution were analysed using HPLC and reported as percent of the initial concentrations.
The output signal was monitored and processed using ChemStation® software (Agilent Technologies Inc., USA). Chromatographic separation was carried out on a 50 mm × 4.6 mm EC-C18 Agilent Poroshell 120 analytical column with 2.7 µm spherical particles.
The injection volume was 5 µL, and the UV detection wavelength of 260 nm was selected.
For RPV, the stationary phase was maintained at 40 °C. The mobile phase consisted of methanol: water (pH 3.5 adjusted with 0.1% formic acid) (43:57 v/v) at a flow rate of 0.9 mL/min over a 10 min run time. The injection volume was 20 µL, and the UV detector was set at 290 nm.
For CAB, the column was maintained at 45 °C and the optimized mobile phase consisted of acetonitrile: water (pH 3.5 adjusted with 0.1% formic acid) (30:70 v/v) at flow rate of 0.8 mL/min over an 8 min run time. For analysis, 5 µL of the sample was injected on to the column, and the samples were analysed at a wavelength of 260 nm.
For tenofovir alafenamide, the column was maintained at 22 °C. The mobile phase consisted initially of acetonitrile: water (pH 3.5 adjusted with 0.1% formic acid) (100:0 v/v). […] The flow rate was 0.6 mL/min and the run time was 8 min. The injection volume was 10 µL, and the UV detection wavelength of 260 nm was selected.

Data set [3] is described as follows: Drug stability at high temperature (150 °C, 2 h), HPLC. The data set is classed as physicochemical. The conditions noted are these: 150 °C for 2 h. As for the experimental part: To determine the drug stability at high temperatures, the drug was weighed in a 20 mL glass vial, and placed in a convection oven at 150 °C for 2 h. Drug was dissolved in methanol, and the concentration was compared to that of an unheated standard of the same initial concentration via HPLC.

The conditions of data set [4]: humans receiving the usual oral dose; stated by Reviewer 1, no reference; cited from earlier work.
The test system of data set [5] is HIV reference strain NL4-3. Also on record: method as in ref 46,55–57 (a number printed in a supplementary file, which may have a reference list of its own: not looked up in the article's list). The settings on record: wild-type virus; cited from earlier work.
On the set-up of data set [6]: method as in ref 58 (a number printed in a supplementary file, which may have a reference list of its own: not looked up in the article's list). The settings on record: cited from earlier work.
In data set [7] the test system is drug-resistant HIV strains. The conditions noted are these: cited from earlier work.
The conditions of data set [8]: pig, in vivo, po; cited from earlier work.
[9] abbreviates: immediate release formulation, pigs.
Setting [10] is: immediate release formulation, pigs, n = 3.

`C[C@H]1CO[C@@H]2Cn3cc(C(=O)NCc4ccc(F)cc4F)c(=O)c(O)c3C(=O)N12` [CAB, cabotegravir]: in data set [1] (setting [9]), the Tmax was 6 h, the “day at or after which no drug was detected in plasma” value was found to be 3 days and the “time for which drug was detectable in plasma” value is reported as “up to 2 days”. Besides, in data set [1] (gastric resident system vs immediate release, pigs), the “average peak plasma concentration, fold lower than immediate release” value was ~ 2.5 fold. Also, the “average (sustained) plasma drug concentrations throughout the week following dosing” value in data set [1] (gastric resident system, pigs, n = 3) was 200 to 500 ng/mL. Moreover, the “duration of sustained drug concentrations” value in data set [1] (gastric resident system) is given as “up to 1 week”. The “average maximum plasma concentration” value in data set [1] (setting [10]) was around 1400 ng/mL. The “stability in SGF” value in data set [2] is “stable”. The “stability at elevated temperature” value in data set [3] is recorded as “stable”. Moreover, the “usual Cmax in humans” value in data set [4] was 2800 ng/mL.
One may read the IC50 as the concentration that gives 50% inhibition. Usually Cmax stands for the peak of the concentration-time curve. On to `Cc1cc(/C=C/C#N)cc(C)c1Nc1ccnc(Nc2ccc(C#N)cc2)n1` [RPV, rilpivirine], for which, in data set [5], the IC50 was 105 nM. Besides, the “m (slope parameter of Hill curve)” value in data set [5] is on record as 1.83. For the same compound, in data set [6], the “Half-life, τ1/2” value is 50 h. Further, the Cmax in data set [6] (maximum plasma concentration at steady state, perfect adherence) was 510 nM. The Tmax in data set [1] (175 mg, gastric resident dosage form, pigs) was 24 h. The “maintenance of plasma concentrations” value in data set [1] (gastric resident dosage form, pigs, entirety of the study) was “comparable to the Cmax were maintained for the entirety of the study”. Besides, in data set [1] (gastric resident system), the “duration of sustained drug concentrations” value was “up to 1 week”. Moreover, in data set [1] (setting [9]), the “time for plasma concentration to drop below the limit of detection” value is recorded as at most 2 days. The “average maximum plasma concentration” value in data set [1] (setting [10]) is around 25 ng/mL. For the same compound, the “stability in SGF” value in data set [2] is recorded as “stable”. In addition, the “stability at elevated temperature” value in data set [3] is recorded as “stable”. The “usual Cmax in humans” value in data set [4] is listed as 200 ng/mL. Also, the “Fold change in IC50 (ρ)” value is reported as 3.20 in data set [7] (mutation E138K/M184I); 22.60 in data set [7] (mutation E138K/M230L); 2.30 in data set [7] (mutation E138K); 3.20 in data set [7] (mutation K101E/E138K); 5.80 in data set [7] (mutation K101E/M184I); 3.00 in data set [7] (mutation K101E). The “Fold change in IC50 (ρ)” value in data set [7] (mutation K101P) is on record as 102.13; in data set [7] (mutation K103N), 1.23; in data set [7] (mutation M184I), 1.50; in data set [7] (mutation M230L), 3.40; in data set [7] (mutation Y181C/Y188L), 30.20; in data set [7] (mutation Y181C), 1.72. In addition, the “Fold change in IC50 (ρ)” value in data set [7] (mutation Y181I) is 152.91; in data set [7] (mutation Y181V), 31.00; in data set [7] (mutation Y188L) it was 6.00. Further, the “Fractional change in slope (σ)” value in data set [7] (mutation K101P) was -0.21; in data set [7] (mutation K103N) it was 0.12; in data set [7] (mutation Y181C), -0.48; in data set [7] (mutation Y181I) it was -0.10.
With `CC(C)OC(=O)[C@H](C)N[P@](=O)(CO[C@H](C)Cn1cnc2c(N)ncnc21)Oc1ccccc1` [TAF, tenofovir alafenamide], the drug remaining stable in data set [2] (after 10 h of incubation in SGF, 37 °C) is 10%.
Consider `C[C@]12C=CC(=O)C=C1CC[C@@H]1[C@@H]2[C@@H](O)C[C@@]2(C)[C@H]1CC[C@]2(O)C(=O)CO` [prednisolone], for which, in data set [8], the “concentrations achieved in pigs relative to those observed in humans” value is “about one tenth”.
